The test system of one data set is MDA-MB231 clone 16 cells. The data set can be described thus: In vitro cell killing assay of payloads (cell proliferation, Cell-Titer-Glo). It counts as cell-based. The following applies: Homo sapiens, 120 h; MDA-MB-231 clone 16 cells; Cell-Titer-Glo after five days.
Another data set concerns HCC1954 cells. The data set is described as above. It counts as cell-based. To be noted: Homo sapiens, 120 h, HCC1954 cells, Cell-Titer-Glo after five days, read-out: In vitro cell killing (IC50 (nM)) HCC1954.
For the next data set, the system named is KU812 cells. The data set is described as above. It counts as cell-based. To be noted: Homo sapiens, 120 h, Cell-Titer-Glo after five days.
Another data set deals with H526 cells. The description is as above. It counts as cell-based. To be noted: Homo sapiens, 120 h, NCI-H526 cells, Cell-Titer-Glo after five days, read-out: In vitro cell killing (IC50 (nM)) NCI-H526.
The subject of another data set is Jurkat cells. Described as above. It counts as cell-based. To be noted: Homo sapiens, 120 h, Cell-Titer-Glo after five days.
For another data set, the system named is MDA-MB231 clone 40 cells. The description is as above. The data set is classed as cell-based. The following applies: Homo sapiens, 120 h; MDA-MB-231 clone 40 cells; Cell-Titer-Glo after five days.
Another data set relates to JimT1 cells. Described as above. It counts as cell-based. To be noted: Homo sapiens, JIMT-1, 120 h, JimT1 cells, Cell-Titer-Glo after five days, read-out: In vitro cell killing (IC50 (nM)) JimT1.
Another data set has as its system CMK11-5 cells. The data set is described as above. To be noted: Homo sapiens, 120 h; CMK-11-5 cells; Cell-Titer-Glo after five days. The data set is classed as cell-based.
A further data set concerns NCI-N87 cells. The description is as above. The data set is classed as cell-based. To be noted: Homo sapiens, 120 h, Cell-Titer-Glo after five days. The protocol:
(§1) For evaluation of the cell killing potency of the cytotoxic peptides of Formula (I) in vitro, cell proliferation assays were performed in parallel with 8 cell lines: MDA-MB231 clone 16, clone 40, JimT1, HCC1954, H526, KU812, CMK11-5 cells and Jurkat cells. In addition, in vitro, cell proliferation assays were performed using 3 other cell lines: A375, SKBR3 and NCI-N87. All the cell lines are described in more detail in Example 106 and were also used to assess the in vitro potency of immunoconjugates of the invention. The cell proliferation assays were conducted with Cell-Titer-Glo™ (Promega) five days after cells were incubated with various concentrations of ADCs (Riss et al., (2004) Assay Drug Dev Technol. 2:51-62).

Another data set concerns SKBR3 cells. Described as above. The following applies: Homo sapiens, SK-BR-3, 120 h, Cell-Titer-Glo after five days. The data set is classed as cell-based. Here is the method:
as §1

The test system of a further data set is A375 cells. The data set is described as above. It counts as cell-based. The following applies: Homo sapiens, A-375, 120 h, Cell-Titer-Glo after five days. Here is the method: as §1
For data set [1] the following is noted: acidic condition.

Data on seven compounds can be found in patent US9988420B2, “Cytotoxic peptides and conjugates thereof” (priority 2013, dated 2018).

Where two headings read alike, the source gives them in different places. Non-standard residues stand in square brackets, D forms with d. Residues, ends and D or L forms follow the SMILES beside them. *: point of attachment. Dolaproine = CO[C@@H]([C@@H]1CCCN1)[C@@H](C)C(=O)O; Dil = CC[C@H](C)[C@H](NC)[C@@H](CC(=O)O)OC; X2 = CN1[C@@H]2CC[C@@H](C2)[C@H]1C(=O)*; Phe(ol) = N[C@H](CO)Cc1ccccc1

One may read the IC50 as the concentration that gives 50% inhibition. Turning to `CC[C@H](C)[C@@H]([C@@H](CC(=O)N1CCC[C@H]1[C@H](OC)[C@@H](C)C(=O)N[C@@H](Cc1ccccc1)C(=O)NS(=O)(=O)CCCN=[N+]=[N-])OC)N(C)C(=O)[C@@H](NC(=O)[C@@H]1[C@H]2CC[C@H](C2)N1C)C(C)C` [Compound 46, (1R,3S,4S)-N-((S)-1-(((3R,4S,5S)-1-((S)-2-((1R,2R)-3-(((S)-N-1-(3-Azidopropylsulfonamido)-1-oxo-3-phenylpropan-2-yl)amino)-1-methoxy-2-methyl-3-oxopropyl)pyrrolidin-1-yl)-3-methoxy-5-methyl-1-oxoheptan-4-yl)(methyl)amino)-3-methyl-1-oxobutan-2-yl)-2-methyl-2-azabicyclo[2.2.1]heptane-3-carboxamide], the IC50 with MDA-MB231 clone 16 cells worked out at 8.1 nM; with HCC1954 cells (Table 2a), 2.3 nM; with KU812 cells, 8.4 nM; in the data set with H526 cells (Table 2a), 29.5 nM; in the data set with Jurkat cells, 6.1 nM; in the data set on MDA-MB231 clone 40 cells it was 11.7 nM. In addition, the IC50 in the data set on JimT1 cells (Table 2a) is 14.2 nM; in the data set with CMK11-5 cells, 10.4 nM.
Turning to `CC[C@H](C)[C@@H]([C@@H](CC(=O)N1CCC[C@H]1[C@H](OC)[C@@H](C)C(=O)N[C@@H](Cc1ccccc1)CS(N)(=O)=O)OC)N(C)C(=O)[C@@H](NC(=O)[C@@H]1[C@H]2CC[C@H](C2)N1C)C(C)C` [Compound 55, (1R,3S,4S)-N-((S)-1-(((3R,4S,5S)-3-methoxy-1-((S)-2-((1R,2R)-1-methoxy-2-methyl-3-oxo-3-(((S)-1-phenyl-3-sulfamoylpropan-2-yl)amino)propyl)pyrrolidin-1-yl)-5-methyl-1-oxoheptan-4-yl)(methyl)amino)-3-methyl-1-oxobutan-2-yl)-2-methyl-2-azabicyclo[2.2.1]heptane-3-carboxamide], the IC50 in the data set with HCC1954 cells (Table 2b) is 0.124 nM; in the data set with NCI-N87 cells, 0.643 nM; in the data set on SKBR3 cells it was 0.21 nM; in the data set with A375 cells it was 2.75 nM; in the data set with H526 cells (Table 2b), 0.364 nM; in the data set on JimT1 cells (Table 2b) it was 0.751 nM.
For `CC[C@H](C)[C@@H]([C@@H](CC(=O)N1CCC[C@H]1[C@H](OC)[C@@H](C)C(=O)N[C@H](CO)Cc1ccccc1)OC)N(C)C(=O)[C@@H](NC(=O)[C@@H]1[C@H]2CC[C@H](C2)N1C)C(C)C` [Compound 51, (1R,3S,4S)-N-((S)-1-(((3R,4S,5S)-1-((S)-2-((1R,2R)-3-(((S)-1-Hydroxy-3-phenylpropan-2-yl)amino)-1-methoxy-2-methyl-3-oxopropyl)pyrrolidin-1-yl)-3-methoxy-5-methyl-1-oxoheptan-4-yl)(methyl)amino)-3-methyl-1-oxobutan-2-yl)-2-methyl-2-azabicyclo[2.2.1]heptane-3-carboxamide] (X2-V[Dil][Dolaproine][Phe(ol)]), the IC50 in the data set on HCC1954 cells (Table 2b) stood at 0.028 nM; in the data set with NCI-N87 cells, 0.053 nM; in the data set on SKBR3 cells it was 0.035 nM; with A375 cells, 0.154 nM; in the data set on H526 cells (Table 2b) it was 0.184 nM; in the data set on JimT1 cells (Table 2b) it was 0.081 nM.
For the compound `CC[C@H](C)[C@@H]([C@@H](CC(=O)N1CCC[C@H]1[C@H](OC)[C@@H](C)C(=O)N[C@H](C)[C@@H](O)c1ccccc1)OC)N(C)C(=O)[C@@H](NC(=O)[C@H]1N[C@@H]2CC[C@H]1C2)C(C)C` [Compound 3, (1R,3S,4S)-N-((S)-1-(((3R,4S,5S)-1-((S)-2-((1R,2R)-3-(((1S,2R)-1-Hydroxy-1-phenylpropan-2-yl)amino)-1-methoxy-2-methyl-3-oxopropyl)pyrrolidin-1-yl)-3-methoxy-5-methyl-1-oxoheptan-4-yl)(methyl)amino)-3-methyl-1-oxobutan-2-yl)-2-azabicyclo[2.2.1]heptane-3-carboxamide], the IC50 turned out to be 12.7 nM in the data set with MDA-MB231 clone 16 cells; 10.8 nM with HCC1954 cells (Table 2a); 6.78 nM with KU812 cells; 22 nM in the data set on H526 cells (Table 2a); 3.01 nM in the data set on Jurkat cells; 23.9 nM in the data set on MDA-MB231 clone 40 cells. For the same compound, the half-maximal inhibitory concentration (IC50) is 42.1 nM in the data set on JimT1 cells (Table 2a) and 14.7 nM with CMK11-5 cells.
Take `CCCCOP(=O)(O)[C@H](Cc1ccccc1)NC(=O)[C@H](C)[C@@H](OC)[C@@H]1CCCN1C(=O)C[C@@H](OC)[C@H]([C@@H](C)CC)N(C)C(=O)[C@@H](NC(=O)[C@@H]1[C@H]2CC[C@H](C2)N1C(=O)CCCCCN1C(=O)C=CC1=O)C(C)C` [Compound 29, Butyl hydrogen ((R)-1-((2R,3R)-3-((S)-1-((3R,4S,5S)-4-((S)-2-((1R,3S,4S)-2-(6-(2,5-dioxo-2,5-dihydro-1H-pyrrol-1-yl)hexanoyl)-2-azabicyclo[2.2.1]heptane-3-carboxamido)-N,3-dimethylbutanamido)-3-methoxy-5-methylheptanoyl)pyrrolidin-2-yl)-3-methoxy-2-methylpropanamido)-2-phenylethyl)phosphonate]: the “hydrolysis of the ester” value in [1] is given as “prone to hydrolysis in acidic condition”.
In the case of `CC[C@H](C)[C@@H]([C@@H](CC(=O)N1CCC[C@H]1[C@H](OC)[C@@H](C)C(=O)N[C@H](CO)Cc1cccc(N)c1)OC)N(C)C(=O)[C@@H](NC(=O)[C@@H]1[C@H]2CC[C@H](C2)N1C)C(C)C` [Compound 52, (1R,3S,4S)-N-((S)-1-(((3R,4S,5S)-1-((S)-2-((1R,2R)-3-(((S)-1-(3-Aminophenyl)-3-hydroxypropan-2-yl)amino)-1-methoxy-2-methyl-3-oxopropyl)pyrrolidin-1-yl)-3-methoxy-5-methyl-1-oxoheptan-4-yl)(methyl)amino)-3-methyl-1-oxobutan-2-yl)-2-methyl-2-azabicyclo[2.2.1]heptane-3-carboxamide], the IC50 in the data set with HCC1954 cells (Table 2b) was 0.019 nM; in the data set on NCI-N87 cells, 0.068 nM; with SKBR3 cells, 0.046 nM; in the data set on A375 cells, 0.923 nM.
For `CC[C@H](C)[C@@H]([C@@H](CC(=O)N1CCC[C@H]1[C@H](OC)[C@@H](C)C(=O)N[C@@H](Cc1ccccc1)c1nc(-c2ccccc2)c[nH]1)OC)N(C)C(=O)[C@@H](NC(=O)[C@H]1N[C@@H]2CC[C@H]1C2)C(C)C` [Compound 57, (1R,3S,4S)-N-((S)-1-(((3R,4S,5S)-3-Methoxy-1-((S)-2-((1R,2R)-1-methoxy-2-methyl-3-oxo-3-(((S)-2-phenyl-1-(5-phenyl-1H-imidazol-2-yl)ethyl)amino)propyl)pyrrolidin-1-yl)-5-methyl-1-oxoheptan-4-yl)(methyl)amino)-3-methyl-1-oxobutan-2-yl)-2-azabicyclo[2.2.1]heptane-3-carboxamide], the half-inhibitory concentration (IC50) was 0.019 nM in the data set on NCI-N87 cells; 0.034 nM in the data set on SKBR3 cells; 0.049 nM in the data set with A375 cells; 1.11 nM with H526 cells (Table 2b); 0.307 nM in the data set with JimT1 cells (Table 2b).
